From US20070027189A1, “Use of known active ingredients as radical scavengers” (Altana Pharma AG, priority 2003, published 2007)

Experiments:
[1] = OH-radical-dependent degradation of haeme group (Soret band at 408 nm), Cu/ascorbate Fenton reaction; format: biochemical, Bovine; conditions: for inhibition of heme degradation: aqueous assay; for inhibition of heme degradation compared to control: dissolved in DMF
Description: A suitable assay is the inhibition of the OH-radical-dependent degradation of the heme system of heme proteins. The […] of the Soret band of the heme group can be conveniently quantified in the 350-450 nm region. An alternative assay used was the depolymerisation of hyaluronic acid by OH-radicals The progressive depolymerisation of this mucopolysaccharide was followed viscosimetrically and should be inhibited accordingly in the presence of the prazoles. Bovine erythrocytes were haemolysed and diluted with water to give an electronic absorption at 408 nm of 1.0. The assay was performed analogous to that of the myeloperoxidase enzymatic activity test where hypochlorite is produced which is known to degrade the heme group of heme proteins. To 574 μl of aqueous haeme solution in a thermostatted cuvette 6 μl of DMF or water and 10 μl of […] aqueous copper sulphate were added for 5 minutes. The reaction was started after the addition of 10 μl 50 μM ascorbic acid and the absorption followed at 37° C. for two minutes in the control experiment. Depending on the solubility the respective inhibitor was added in a volume of 6 μl in DMF or water. The total volume was 600 μl.

[2] = depolymerisation of hyaluronic acid by OH-radicals, viscosimetric; format: biochemical
Description: A suitable assay is the inhibition of the OH-radical-dependent degradation of the heme system of heme proteins. The […] of the Soret band of the heme group can be conveniently quantified in the 350-450 nm region. An alternative assay used was the depolymerisation of hyaluronic acid by OH-radicals The progressive depolymerisation of this mucopolysaccharide was followed viscosimetrically and should be inhibited accordingly in the presence of the prazoles. Depolymerisation of hyaluronic acid was measured in terms of viscosity change with time. Potassium hyaluronate was purchased from Sigma-Aldrich Chemie, Steinheim, Germany. All operations were performed at room temperature (22° C.). Relative viscosity was monitored by recording the time (seconds) required for a given volume (0.8 ml) of the reaction mixture to drain by gravity from the barrel of a plastic 1 ml syringe through a needle of appropriate size. The meniscus was timed as it passed between two calibration marks on the syringe barrel. […] The reaction was started with 30 μl of 50 mM ascorbic acid in presence of 10 mM phosphate buffer pH 7.2 and incubated for 5 minutes. […] When the water-soluble sodium salt of pantoprazole was examined only 2.5 μl 10 mM copper sulphate and 5 μl 50 mM ascorbic acid were needed to yield an appropriate depolymerization effect.

[3] = thiobarbituric acid assay (2-desoxy-D-ribose decomposition, Fe(II) Fenton reaction); format: biochemical; conditions: concentration dependent
Description: In a third completely different method OH-radicals generated during a Fenton reaction decomposed 2-desoxy-D-ribose. This reaction was monitored by measuring the formation of malondialdehyde-like compounds known to yield coloured thiobarbituric acid adducts which were eventually recorded at 532 nm. […] This was attributed to the extraordinary stability of this compound surviving a hydroxyl radical burst A crucial question was the survival of these benzimidazoles during Fenton-type reactions. These stability measurements were conducted employing HPLC analysis allowing the detection of remaining intact primary compounds. The thiobarbituric acid assay was performed according to the method described earlier [10]300 μl 7.5 mM 2-desoxy-D-ribose were added to 1000 μl 10 mM potassium-phosphate buffer, pH 7.4 and incubated for 30 min. at 37° C. in the presence of 100 μl inhibitor compound and 100 μl 10 mM iron(II)ammonium sulphate. The total volume was 1.5 ml. The reaction was stopped by the addition of 1 ml 1% (w/v) thiobarbituric acid dissolved in 50 mM NaOH and 1 ml of 2.8% (w/v) trichloro acetic acid and maintained for 15 min at 95° C. The control reaction mixture contained the same volume of DMFas was present in the inhibitor compound. The dye was measured at 532 nm.

[4] = after oral administration; read-out: maximal concentration (Cmax) in plasma; cited from earlier work
[5] = scavenging of hydroxyl radicals generated during a Fenton reaction (three assays); format: biochemical
Protocol: Bovine erythrocytes were haemolysed and diluted with water to give an electronic absorption at 408 nm of 1.0. The assay was performed analogous to that of the myeloperoxidase enzymatic activity test where hypochlorite is produced which is known to degrade the heme group of heme proteins. To 574 μl of aqueous haeme solution in a thermostatted cuvette 6 μl of DMF or water and 10 μl of […] aqueous copper sulphate were added for 5 minutes. The reaction was started after the addition of 10 μl 50 μM ascorbic acid and the absorption followed at 37° C. for two minutes in the control experiment. Depending on the solubility the respective inhibitor was added in a volume of 6 μl in DMF or water. The total volume was 600 μl. Depolymerisation of hyaluronic acid was measured in terms of viscosity change with time. Potassium hyaluronate was purchased from Sigma-Aldrich Chemie, Steinheim, Germany. All operations were performed at room temperature (22° C.). Relative viscosity was monitored by recording the time (seconds) required for a given volume (0.8 ml) of the reaction mixture to drain by gravity from the barrel of a plastic 1 ml syringe through a needle of appropriate size. The meniscus was timed as it passed between two calibration marks on the syringe barrel. […] The dye was measured at 532 nm.

[6] = stability under conditions of the Fenton reaction, HPLC analysis; format: physicochemical; conditions: 90 min of incubation, n=3
Description: In a third completely different method OH-radicals generated during a Fenton reaction decomposed 2-desoxy-D-ribose. This reaction was monitored by measuring the formation of malondialdehyde-like compounds known to yield coloured thiobarbituric acid adducts which were eventually recorded at 532 nm. […] This was attributed to the extraordinary stability of this compound surviving a hydroxyl radical burst A crucial question was the survival of these benzimidazoles during Fenton-type reactions. These stability measurements were conducted employing HPLC analysis allowing the detection of remaining intact primary compounds. A 200 μl aliquot of the incubation mixture was analysed by HPLC using the analytical column Nucleosil C 8, 5 μm (125×4.6 mm, Fa. Grom, Herrenberg, Germany) and the precolumn was LiCHROPREP RP-2 (12×4 mm, Fa. Merck, Darmstadt, Germany) in a reverse phase. A gradient of acetonitrile (10-45% (v/v)) and 10 mM phosphate buffer, pH 7.4, at a flow rate of 1 ml min-1 was used as effluent on the analytical column.

[7] = superoxide radical scavenging system (superoxide dismutase assay using nitro tetrazolium chloride); format: biochemical
Protocol: In order to examine a possible reactivity of the substituted benzimidazoles with superoxide a standard superoxide dismutase assay using nitro tetrazolium chloride was employed. Scavengeing of hydroxyl radicals was measured by three different established methods.

| inhibition of heme degradation ([1]; 25 μM) | inhibition of heme degradation ([1]; 50 μM) [%] | inhibition of heme degradation ([1]; 100 μM) [%] | inhibition of heme degradation compared to control ([1]; 50 μM) [%] | inhibition of heme degradation compared to control ([1]; 100 μM) [%] | mucopolysaccharide degradation ([2]; 80 μM dissolved in DMF, within 20 min) [%] | decrease of intact compound after OH-radical exposure [6] [%] | SMILES | inhibition of hyaluronic acid depolymerisation ([2]; 12 μM, fully aqueous assay) [%] | biopolymer protected ([2]; 20 μM, fully aqueous assay) [%] | inhibitory effect on OH-radical decomposition of desoxyribose [3] | Cmax [4] [µM] | scavenging of hydroxyl radicals [5] | inhibition of hyaluronic acid depolymerisation ([2]; 160 μM dissolved in DMF) | reactivity in the superoxide radical scavenging system [7] |
| --- | --- | --- | --- | --- | --- | --- | --- | --- | --- | --- | --- | --- | --- | --- |
| distinct inhibition | 34 | 74 | – | – | – | – | COc1ccnc(C[S+]([O-])c2nc3ccc(OC(F)F)cc3[nH]2)c1OC (centres unmarked) [pantoprazole sodium] | 46 | 90 | – | – | – | – | – |
| – | – | – | 36 | 75 | 48 | 15 | COc1ccnc(C[S+]([O-])c2nc3ccc(OC(F)F)cc3[nH]2)c1OC (centres unmarked) [pantoprazole, 5-difluoromethoxy-2-[(3,4-dimethoxy-2-pyridinyl)methylsulphinyl]-1H-benzimidazole] | – | – | inhibitory effect was clearly seen | 5 to 10 | pronounced inhibitory reactivity | nearly complete inhibition | did not display detectable reactivity |
